Results on five molecules are retold here after PMC11547827, “Discovery of Cyclic Peptide Inhibitors Targeted on TNFα-TNFR1 from Computational Design and Bioactivity Verification” (Molecules, 2024).

In series [1] the test system is TNFα-mediated cytotoxicity in L929 cells. The series is described as follows: Neutralization of TNFα induced necrosis in L929 cells. The method, then:
L929 cells were seeded at a density of 8000 cells/well in a 96-well plate and incubated for 24 h in RPMI 1640 with 10% FBS at 37 °C. The experiment was divided into a blank group, a control group, a positive control group, and an experimental group. […] Serially diluted α_CC8 was added to cells and incubated at 37 °C, 5% CO2 for 2 h initially, and then 50 μL 10 ng/mL human TNFα was added and incubated overnight (17 h). 1 μg/mL Etanercept was used as a positive control. Subsequently, 100 μL 5% CCK-8 was added per well, followed by incubation of 2 h. The control group consisted of normal cultured cells without TNFα stimulation, while the blank control group contained empty wells without cells. At last, cell viability was confirmed by measuring the absorbance of each well at 450 nm. Cell viability was calculated according to Formula (7). Data was analyzed with SPSSAU (https://spssau.com/, Accessed on 14 August 2023) using the paired t-test to compare the differences between the experimental and control groups.

A further series deals with L929 cells. The following applies: α_CC8, 200 μM, 24 h, CCK-8, 450 nm, n = 3. As for the experimental part: L929 cells were seeded in a 96-well plate at a density of 8000 cells per well and cultured for 24 h under standard conditions. Then, the liquid in the wells was discarded, and 100 µL of medium containing different concentrations of cyclic peptides was added. After incubation for 24 h, the liquid in the well was discarded, and the medium was replaced with CCK-8 working solution (100 μL RPMI 1640 medium containing 5% CCK-8) and incubated in the dark for 2 h. The absorbance of each well at 450 nm was detected with a microplate reader. The same operation was performed with wells not seeded with cells as a blank group to eliminate systematic errors. Cell viability was calculated according to the following formula:(7) Cell viability(%)=(ODtest−ODblank)/(ODcontrol−ODblank)×100%

For the next series, the target named is TNFα. The following applies: cited from earlier work. An excerpt: Several potential small molecules of TNFα inhibitors have already been reported.
The subject of another series is TNFα trimer. Conditions: cited from earlier work. The text has this: Several potential small molecules of TNFα inhibitors have already been reported. […] Furthermore, through structure-based virtual screening and biological assay, Xie’s group identified two novel antagonists, T1 and R1 (Figure S1A), which could bind to TNFα or TNFR1, with low-micromolar binding affinities to TNFα and TNFR1, respectively ...

The target in another series is T1, hTNFR1 (Homo sapiens, UniProt P19438).
T1 sequence (P19438 30-455): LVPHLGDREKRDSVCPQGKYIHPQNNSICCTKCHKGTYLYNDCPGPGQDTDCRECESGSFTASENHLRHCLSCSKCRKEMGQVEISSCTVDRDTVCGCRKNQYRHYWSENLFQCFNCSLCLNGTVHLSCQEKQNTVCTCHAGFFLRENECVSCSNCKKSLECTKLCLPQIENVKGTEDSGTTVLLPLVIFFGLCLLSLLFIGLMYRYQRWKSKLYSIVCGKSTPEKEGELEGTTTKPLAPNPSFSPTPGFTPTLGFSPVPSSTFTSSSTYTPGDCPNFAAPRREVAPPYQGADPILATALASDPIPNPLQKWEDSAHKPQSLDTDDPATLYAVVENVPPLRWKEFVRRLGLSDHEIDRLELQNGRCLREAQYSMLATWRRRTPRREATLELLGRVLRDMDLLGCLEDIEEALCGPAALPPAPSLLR
Put plainly: ELISA binding affinity to hTNFR1. The method, then:
The hTNFR1 (100 ng) was coated on a 96-well ELISA plate (BIOFIL, Guangzhou, China) overnight at 4 °C, followed by blocking the plate with 200 μL of 3% skim milk solution in PBST (PBS, 0.05% Tween20) for 2 h at 37 °C. […] After incubating with the cyclic peptides for 2 h at room temperature, […] mAB (Solarbio, Beijing, China) was diluted at 1:500, and was incubated for an additional 2 h at room temperature. Five washes with PBST were carried out between each incubation to remove nonspecific absorbance. After the final wash, the samples were incubated in the dark with freshly prepared TMB Chromogen Solution (Sangon Biotech, Shanghai, China) for 10 min at room temperature to develop the signals. After adding the stop solution (1 M H2SO4), the plates were read at 450 nm on a plate reader. The raw data were processed to calculate the Kd value.
In general terms: In an ELISA, binding on a coated surface is turned into a signal by an enzyme label.

“Also recorded” adds a separate entry of the source. Where a SMILES comes first, the peptide text is derived from it. Bridges are numbered along the chain shown (N, C = ends).

For the molecule `CC[C@H](C)[C@@H]1NC(=O)[C@H](CCCNC(=N)N)NC(=O)[C@H](CO)NC(=O)[C@H]([C@@H](C)CC)NC(=O)[C@H]([C@@H](C)O)NC(=O)[C@@H](N)CSSC[C@@H](C(=O)O)NC(=O)[C@H](CO)NC(=O)[C@H](CC(C)C)NC(=O)[C@H](CC(C)C)NC(=O)[C@H](CC(N)=O)NC(=O)[C@H](C(C)C)NC(=O)[C@H](CCCCN)NC(=O)[C@H]([C@@H](C)O)NC(=O)[C@H](CCC(N)=O)NC(=O)[C@H](Cc2ccc(O)cc2)NC(=O)[C@H](CO)NC(=O)[C@H](C(C)C)NC(=O)[C@H](C)NC1=O` [α_CC8] (H-CTISRIAVSYQTKVNLLSC-OH; disulfide 1-19; N-terminus and C-terminus assumed), the “inhibition of TNFα-mediated cytotoxicity (in words)” value in series [1] (L929 cells) was “effectively inhibit the TNFα-mediated cytotoxicity; also recorded: better bioactivity and lower effective concentration than R1_CC4; also recorded: improve cell viability significantly by inhibiting TNFα-mediated necrosis; also recorded: higher biological activity and effective concentration than R1_CC4”. Moreover, in series [1] (L929 cells, human TNFα 10 ng/mL, 17 h, CCK-8, n = 3), the “concentration at which survival rate increased significantly” value turned out to be 60 µM. The “increase of cell survival rate” value in series [1] (α_CC8 60 μM, 2 h with cells, then human TNFα 17 h, n = 3) was 17.8%. In the series with L929 cells, the “survival rate of L929 cells” value is recorded as ≤ 90%.

By Kd is commonly meant the constant that tells how readily two partners part at equilibrium. Take `Cc1cc2occ(CN(C)CCN(C)Cc3cn(-c4cccc(C(F)(F)F)c4)c4ccccc34)c(=O)c2cc1C` [SPD-304, reference compound]: the Kd at TNFα (TNFα small molecule antagonist) was 5.36 µM. For the same molecule, in the series on TNFα trimer, the “effect on TNFα trimer (in words)” value is “greatly increase the dissociation rate of the TNFα trimer”.

On to Etanercept, for which the “blocking effect compared with the cyclic peptides (in words)” value in series [1] (Etanercept 1 μg/mL, positive control, L929 cells) is listed as “stronger blocking effect on the formation of TNFα/TNFR1”. The “TNFα binding (in words)” value in the series with TNFα (background statement, no reference given) is reported as “strong ability to bind TNFα”.

In the case of TNFα, in series [1] (TNFα alone, 10 ng/mL, 17 h, average), the “survival rate of L929 cells after TNFα” value is 42%.

As for `CC[C@H](C)[C@@H]1NC(=O)[C@H](CCCNC(=N)N)NC(=O)[C@H](CO)NC(=O)[C@H]([C@@H](C)CC)NC(=O)[C@H]([C@@H](C)O)NC(=O)[C@@H](N)CSSC[C@@H](C(=O)O)NC(=O)[C@H](CO)NC(=O)[C@H](CC(C)C)NC(=O)[C@H](CCCNC(=N)N)NC(=O)[C@H](CC(N)=O)NC(=O)[C@H](C(C)C)NC(=O)[C@H](CCCCN)NC(=O)[C@H]([C@@H](C)O)NC(=O)[C@H](CCC(N)=O)NC(=O)[C@H](Cc2ccc(O)cc2)NC(=O)[C@H](CO)NC(=O)[C@H](C(C)C)NC(=O)[C@H](CCCCN)NC1=O` [L16R] (H-CTISRIKVSYQTKVNRLSC-OH; disulfide 1-19; N-terminus and C-terminus assumed), the “binding to hTNFR1 (in words)” value at hTNFR1 was “good binding condition with hTNFR1”.
